Patent publication US7750031B2, “Caffeic acid derivative and composition containing the same” (Thefaceshop Korea Co., Ltd., priority 2007, dated 2010)

Test: solubility measurement in purified water and ethanol
Conditions: for density up to which dissolved: 25° C.

- solubility (ethanol (25° C.), density 1 mg/mL): dissolved
- solubility (ethanol (25° C.), density 10 mg/mL): dissolved
- solubility (ethanol (25° C.), density 100 mg/mL): not dissolved
- density up to which dissolved (ethanol): ≥ 10 mg/mL
- solubility (purified water (25° C.), density 1 mg/mL): not dissolved
- solubility (purified water (25° C.), density 10 mg/mL): not dissolved
- solubility (purified water (25° C.), density 100 mg/mL): not dissolved
- density up to which dissolved (purified water): not dissolved
Structure (SMILES): O=C(O)/C=C/c1ccc(O)c(O)c1 [caffeic acid]
